“And” between values parts separate entries of the source, which are not always exact repeats. Equal entries are not always repeated.
Tests used:
[1] = Oral and intracolonic heparin delivery in rats, APTT; format: in vivo, Sprague-Dawley rats
Procedure: (§1) Oral gavage (PO) and/or intracolonic (IC) dosing solutions containing a delivery agent compound and heparin sodium USP in 25% aqueous propylene glycol were prepared. The sodium salt of the compound was used. Typically, delivery agent compound and heparin (about 166-182 IU/mg) were mixed by vortex as dry powders. This dry mixture was dissolved in 25% v/v aqueous propylene glycol, vortexed and placed in a sonicator (about 37° C.). The pH was adjusted to about 7 (6.5 to 8.5) with aqueous NaOH (2N). The dosing solution was sonicated to produce a clear solution. The final volume was adjusted to 3.0 mL. The final delivery agent compound dose, heparin dose and volume dose amounts are listed below in Table 6.
(§2) The typical dosing and sampling protocols were as follows. Male Sprague-Dawley rats weighing between 275-350 g were fasted for 24 hours and were anesthetized with ketamine hydrochloride (88 mg/kg) intramuscularly immediately prior to dosing. A dosing group of five rats was administered one of the dosing solutions. […] Solution was administered by pressing the syringe plunger. […] The dosing catheter was inserted into the colon through the anus until the tube was no longer visible. The dosing solution was injected slowly into the colon.
Citrated blood samples were collected by cardiac puncture following the administration of ketamine (88 mg/kg), typically at time—0.25, 0.5, 1.0 and 1.5 hours. Heparin activity was determined by utilizing the activated partial thromboplastin time (APTT) according to the method of Henry, J. B., Clinical Diagnosis and Management by Laboratory Methods, Philadelphia, Pa., W.B. Saunders (1979). Previous studied indicated baseline values of about 20 sec. Results from the five rats in each group were averaged for each time point. The maximum is reported below in Table 6.

[2] = Human recombinant insulin oral/intracolonic delivery in rats, serum insulin Cmax; format: in vivo, Sprague-Dawley rats
Procedure: (§3) Insulin (human recombinant) was obtained from ICN Biomedicals (Aurora, Ohio) as a bulk powder. To prepare stock solutions, insulin was dissolved in deionized water (pH˜6.5) to obtain a concentration of 15 mg/ml. Stock solutions were kept frozen at −20° C. in 1.0-ml aliquots until used. For dosing solutions, the delivery agent compound was dissolved in deionized water to obtain a final concentration of 200 mg/ml. The free acid form of delivery agent was converted to the sodium salt by adding one equivalent of sodium hydroxide. Solutions were vortexed, sonicated, and heated, and if necessary, additional sodium hydroxide was added in μl quantities to achieve uniform solubility. Solutions were adjusted to a pH of 3.5-8.5 by the addition of either hydrochloric acid or sodium hydroxide. Insulin stock (typically 66.7 μl) was then added to the delivery agent solution to obtain a final concentration of 0.5 mg/ml. After solubilization and drug addition, solutions were brought to final volume by the addition of deionized water.
(§4) Insulin was administered to male, Sprague-Dawley rats either alone or in combination with an Emisphere delivery agent by oral gavage (PO). Typically, rats were fasted for 18-24 hours prior to dosing. For dosing, a Rusch 8 French catheter was cut to 11 cm in length and adapted to fit a 1-ml syringe. The syringe was filled with dosing solution and the catheter was wiped dry of excess solution. The catheter was inserted into the rat mouth and fed down the esophagus (10.0 cm). The dosing solution was delivered by pressing the syringe plunger while holding the rat in an upright position.
During blood sampling, rats were exposed briefly (˜10 sec) to carbon dioxide until prostrate, immediately prior to each sampling time point. For blood sampling, a 77-mm capillary tube was inserted into the retroorbital sinus. Typically, blood samples were collected prior to dosing (time 0) and at 15, 30, 45, and 60 minutes after dosing. Samples were collected into CAPIJECT® tubes (Terumo Corporation, Tokyo, Japan) containing a clot activator (red top, serum separator tubes). Samples were allowed to clot for ˜20 min at 4° C. After clotting, samples were centrifuged at 10,000 rpm for 4 minutes at 6° C. in order to separate the serum. Serum was collected into eppendorf tubes and frozen at −20° C. until assayed.

[3] = Human recombinant insulin oral delivery in rats, whole blood glucose; format: in vivo, Sprague-Dawley rats; conditions: oral (liquid dose), delivery agent compound dose 200 mg/kg, insulin dose 0.5 mg/kg
Procedure: as §3, §4
In order to determine the pharmacodynamic response, a hand-held glucometer (OneTouch Ultra, LifeScan® (Johnson & Johnson, New Brunswick, N.J.)) was used to measure whole blood glucose after administration of insulin or insulin and delivery agent. Samples were collected either from the retroorbital sinus (see Sample collection and handling: Insulin) or from the tail artery (i.e. tail clip). For tail clipping, the tip of the tail was severed approximately 5 mm from the tip using a scalpel blade. After discarding the first drop of blood, a small sample (˜5-10 μl) was touched to the glucometer test strip (OneTouch Ultra, LifeScan) and a blood glucose reading was generated by the meter. For each subsequent sampling time point, the clot formed at the tip of the tail was broken up and a fresh sample was collected. Typically, samples were collected prior to dosing (time 0) and at 15, 30, 45, and 60 minutes after dosing.

[4] = Human zinc insulin oral delivery in rats, blood glucose % change; format: in vivo, Sprague-Dawley rats; conditions: delivery agent compound dose 200 mg/kg, human zinc insulin dose 0.5 mg/kg
[5] = PYY[3-36] liquid oral delivery in rats, serum PYY by radioimmunoassay; design: species or system Sprague-Dawley rats; conditions: rat, in vivo
Procedure: Oral gavage (PO) dosing solutions of delivery agent compound and Peptide YY residues 3-36 (PYY[3-36]) (available from Bachem California Inc. of Torrance, Calif.) in deionized water were prepared as follows.
PYY [3-36] stock solution (80 mg/ml) was prepared with deionized water. Oral dosing compositions containing 200 mg/kg of delivery agent compound and 0.3 mg/kg of PYY in aqueous solution were prepared. A solution of the compound 23 is made with one equivalent to sodium hydroxide to convert the free acid delivery agent to its sodium salt.
Male Sprague-Dawley rats weighing between 240-320 g were fasted up to a maximum 24 hours before the experiments and administered ketamine (44 mg/kg) and thorazine (1.5 mg/kg) by intramuscular injection before the test article administration. Afterwards, the anesthetized animals were administered the test article by oral gavage.
Blood samples were collected serially from the tail artery, or by cardiac puncture, typically at time=0, 15, 30, 45, 60 and 90 minutes. Serum PYY concentrations were quantified using a PYY[3-36] radioimmunoassay (Catalog #RK-059-02 from Phoenix Pharmaceuticals, Inc., Belmont, Calif.). Results from the animals in each group were averaged for each time point. The maximum of these averages (i.e., the mean peak serum PYY[3-36] concentration ±standard deviation (SD)) is reported below in Table 2.

[6] = Intracolonic heparin delivery in rats, antifactor Xa; format: in vivo, Sprague-Dawley rats; conditions: IC, volume 1 ml/kg, heparin dose 25 mg/kg
Procedure: as §1, §2

[7] = IC, volume 1 ml/kg, compound dose 50 mg/kg, heparin dose 25 mg/kg
[8] = oral (liquid dose), delivery agent compound dose 100 mg/kg, insulin dose 1 mg/kg

Molecule: CC(CC(=O)O)NC(=O)c1cc(Br)cc(Br)c1O (centres unmarked) [Compound 141, 3-(3,5-Dibromo-2-hydroxy-benzoylamino)-butyric acid]
- Mean Peak APTT (sec) ± SD [1, 7]: 52.40 ± 21.54 s
- Cmax [2, 8]: Cmax = 204.05 ± 60.88 μIU/mL

Molecule: COc1ccc(OCCCC(=O)O)c(C(=O)c2ccccc2O)c1 [Compound 165]
- Maximum % drop in glucose from control ± SD [3]: −33.0%

Molecule: CC(C)N(C(=O)CCCCCC(=O)O)c1ccccc1 [Compound 23, 7-[isopropyl(phenyl)amino]-7-oxoheptanoic acid]
- melting point: 62 to 63 °C

Molecule: O=C(O)CCCCCCCCCCOc1ccccc1OCc1ccccc1 [Compound 177, 11-(2-Benzyloxyphenoxy)undecanoic acid]
- melting point: 62 to 63 °C

Molecule: COc1ccc(C(=O)O)cc1OCc1ccccc1 [Compound 153]
- Glucose (% control) [4]: −7.1%

Molecule: CC(CC(=O)O)NC(=O)c1ccccc1O (centres unmarked) [Compound 140, 3-(2-Hydroxy-benzoylamino)-butyric acid]
- Mean Peak APTT (sec) ± SD [1, 7]: 23.49 ± 6.12 s
- Cmax [2, 8]: Cmax = 81.16 ± 114.98 μIU/mL

Molecule: O=C(O)CCCOc1ccccc1C(=O)c1ccccc1O [Compound 166, 4-(2-(2-Hydroxybenzoyl)phenoxy)butyric acid]
- Maximum % drop in glucose from control ± SD [3]: −5.7%

Molecule: CC(CC(=O)O)NC(=O)c1cc(Cl)cc(Cl)c1O (centres unmarked) [Compound 142, 3-(3,5-Dichloro-2-hydroxy-benzoylamino)-butyric acid]
- Cmax [2, 8]: Cmax = 118.16 ± 72.75 μIU/mL

Molecule: O=C(O)Cc1ccc(OCc2ccccc2)cc1 [Compound 158]
- melting point: 110 to 112 °C

Molecule: CN(C(=O)CCC(=O)O)c1ccc(Cl)cc1 [Compound 29]
- Maximum % drop in glucose from control ± SD [3]: −29.25 ± 6.97%

Molecule: PYY[3-36]: Peptide YY residues 3-36, available from Bachem California Inc.; the active agent, dosed alone
- PYY[3-36] detected in blood [5]: No significant PYY[3-36] was detected

Molecule: CCN(C(=O)CC(C)CC(=O)O)c1ccccc1 (centres unmarked) [Compound 26]
- Maximum % drop in glucose from control ± SD [3]: −25.93 ± 14.86%

Molecule: Cc1cc(C(=O)O)cc(C)c1OCc1ccccc1 [Compound 154]
- Glucose (% control) [4]: −7.9%

Molecule: CC(C)N(C(=O)CCCCC(=O)O)c1ccccc1 [Compound 24]
- Maximum % drop in glucose from control ± SD [3]: −14.73 ± 17.64%

Molecule: O=C(O)Cc1ccccc1OCc1ccccc1 [Compound 152]
- Glucose (% control) [4]: −29.3%

Molecule: CC(CC(=O)O)NC(=O)c1ccc(Cl)cc1O (centres unmarked) [Compound 145, 3-(4-Chloro-2-hydroxy-benzoylamino)-butyric acid]
- Mean Peak APTT (sec) ± SD [1, 7]: 134.42 ± 99.03 s
- Cmax ([2]; intracolonic, delivery agent compound dose 50 mg/kg, insulin dose 0.1 mg/kg): Cmax = 15.03 ± 7.80 μIU/mL
- Cmax [2, 8]: Cmax = 3.92 ± 5.62 μIU/mL

Molecule: O=C(O)CCCCCCCCC(=O)c1ccccc1O [Compound 114, 10-(2-Hydroxy-phenyl)-10-oxo-decanoic acid]
- Mean Peak APTT (sec) ± SD [1, 7]: 42.90 ± 8.70 s
- melting point: 85 to 87 °C

Molecule: O=C(O)CCCCOc1ccc(OCc2ccccc2)cc1 [Compound 178, 5-(4-Benzyloxy-phenoxy)-pentanoic acid]
- melting point: 127 to 128 °C

Molecule: O=C(O)CCCCCOc1ccccc1C(=O)c1ccccc1O [Compound 160, 6-(2-(2-Hydroxybenzoyl)phenoxy)hexanoic acid]
- Mean Peak APTT (sec) ± SD [1, 7]: 131 ± 154 s
- melting point: 67 to 70 °C
- Cmax ([2]; oral (liquid dose), delivery agent compound dose 200 mg/kg, insulin dose 0.5 mg/kg): Cmax = 74 ± 7.5 μIU/mL

Molecule: CC(CC(=O)O)NC(=O)c1cc(C(C)C)cc(C(C)C)c1O (centres unmarked) [Compound 151, 3-(2-hydroxy-3,5-diisopropyl-benzoylamino)-butyric acid]
- antifactor Xa (mean peak ± SD) ([6]; compound dose 25 mg/kg): 3.39 ± 3.07
- antifactor Xa (mean peak ± SD) ([6]; compound dose 50 mg/kg): 2.36 ± 1.27
- Mean Peak APTT (sec) ± SD ([1]; PO, volume 3 ml/kg, compound dose 300 mg/kg, heparin dose 100 mg/kg): 252.09 ± 107.13 s

Molecule: CC(CC(=O)O)NC(=O)c1cc(I)cc(I)c1O (centres unmarked) [Compound 143, 3-(2-Hydroxy-3,5-diiodo-benzoylamino)-butyric acid]
- Mean Peak APTT (sec) ± SD [1, 7]: 114.69 ± 121.62 s

Molecule: Cc1ccc(OCCCC(=O)O)c(C(=O)c2ccccc2Cl)c1 [Compound 167, 4-(2-Chlorobenzoyl-4-methylphenoxy)butyric acid]
- Maximum % drop in glucose from control ± SD [3]: −21.2% and −17.7% and −26.2% and −17.8% and −22.7%

Molecule: CC(CC(=O)O)CC(=O)N(c1ccccc1)C(C)C (centres unmarked) [Compound 25]
- Maximum % drop in glucose from control ± SD [3]: −14.81 ± 12.99%

Molecule: COc1ccc(C(=O)CCCC(=O)O)cc1 [Compound 116, 5-(4-Methoxy-phenyl)-5-oxo-pentanoic acid]
- melting point: 141 to 142 °C

Molecule: CC(CC(=O)O)CC(=O)N(C)c1ccccc1 (centres unmarked) [Compound 28]
- Maximum % drop in glucose from control ± SD [3]: −11.41 ± 18.92%

Molecule: CN(C(=O)CCCCCC(=O)O)c1ccccc1 [Compound 27]
- Maximum % drop in glucose from control ± SD [3]: −25.40 ± 30.61%

— US8273794B2, “Compounds and compositions for delivering active agents” (Emisphere Technologies, Inc., priority 2004, dated 2012)
